Molecules are shown by their SMILES.

One series deals with Id2. Briefly: RT-qPCR relative expression of Id2 in cultured HPCs. In kind it is cell-based, mouse. How it is done: (§1) FIG. 8: HPCs were cultured with or without 5 μM SR8278 added on Day 2. At Day 3, 4 and 5, cells were harvested in order to quantify their relative […] by RT-qPCR. The graphs show relative expression of (A) E4bp4, (B) Id2 and (C) Eomes normalized to the housekeeping gene, Hprt.
(§2) HPCs isolated from a WT mouse were cultured as previously (FIG. 2) but the cells were harvested and analysed using RT-qPCR on Day 3, 4 and 5. The relative expression of the E4bp4, Id2 and Eomes genes was compared to the housekeeping gene, Hprt. At Day 4, E4bp4, Id2 and Eomes expression was higher in SR8278 treated samples when compared to the ‘No drug’ control (FIG. 8). The increase in E4bp4 expression disappeared at Day 5 but the increase of Id2 expression remained (FIG. 8B). The upregulation of E4bp4 and its downstream targets happens in a matter of hours and only stays high for a defined period of time.
(§3) RNA was extracted using Qiagen RNeasy Micro Kit according to the manufacture's protocol (Qiagen). Centrifugation was done at 8000 g for 15 seconds and the flow through discarded. Briefly, 350 μl of Buffer RLT+10% β-Mercaptoethanol were added to the harvested cells. […] The concentration of RNA in each sample was measured using Nanodrop, and all samples were diluted to the same working concentration. […]

The next series relates to E4bp4. Briefly: RT-qPCR relative expression of E4bp4 in cultured HPCs. In kind it is cell-based, mouse. How it is done: as §1, §2, §3
(Real-time PCR tracks product formation cycle by cycle.)

For the next series, the system named is HPCs. The series can be described thus: Live cells / toxicity in mouse HPC culture under NK cell-producing conditions. In kind it is cell-based. How it is done: FIG. […] At Day 9, percentage of NK cells was quantified using flow cytometry. (A) Graph showing relative mature mouse NK cell (NK1.1+ CD3−) production when 5 and 10 μM SR8278 were added on different days compared to the ‘No drug’ control. (B) Representative flow cytometry results with percentage of NK cells shown. Addition of 5 μM SR8278 is shown on the top, whereas addition of 10 μM SR8278 is shown on the bottom. […] Results were averaged from two experiments with four repeats each and the error bars represent the mean+SD. Asterisks indicate significant differences from the two annotated results (* is P≤0.01, *** is P≤0.0001 and **** is P≤0.00001) based on Mann-Whitney test.
The HPCs were plated and cultured in 24-well plates at a concentration of 5×10^5 HPCs/well in 1 ml of complete cytokine medium (Dulbecco's modified eagle medium (DMEM) (Sigma Aldrich), 10% FCS, 50 μM β-Mercaptoethanol, 10 ng/ml Flt3-ligand (FIt3L) (R&D Systems), 10 ng/ml IL-7 (R&D Systems), 100 ng/ml stem cell factor (SCF) (R&D Systems) and 1% P/S) for 2 days at 37° C., 5% CO2. […]
Cells to be analysed by flow cytometry were passed through 40 μm cell strainers to remove clumps and washed with PBS buffer, centrifuged at 800 g for 2 minutes and resuspended in 100 μl fluorescent activated cell sorting (FACS) buffer (PBS plus 1% BSA) with appropriate fluorochrome conjugated antibodies at a dilution of 1 in 300. […]

Where [1] appears, read: 5 μM added Day 2, harvested Day 4.
[2] abbreviates: 5 μM added Day 2, harvested Day 5.

For the compound `CCOC(=O)C1Cc2ccccc2CN1C(=O)c1ccc(SC)s1` (stereo not drawn) [SR8278, 1,2,3,4-Tetrahydro-2-[[5-(methylthio)-2-thienyl]carbonyl]-3-isoquinolinecarboxylic acid ethyl ester], the “Id2 expression relative to Hprt, compared to 'No drug' control” value in the series on Id2 (setting [1]) is “higher”. In addition, the “increase of Id2 expression” value in the series on Id2 (setting [2]) was “remained”. Further, in the series with E4bp4 (setting [1]), the “E4bp4 expression relative to Hprt, compared to 'No drug' control” value is “higher”. For the same compound, the “increase in E4bp4 expression” value with E4bp4 (setting [2]) is “disappeared”. In addition, the “toxicity to cells in culture” value with HPCs (20 μM) is “toxic and killed most of the cells”. In addition, the “numbers of live cells compared to 'No drug' control” value with HPCs (added at Days 0 and 1, 5 and 10 μM) was “remarkably low”.

These data come from US12496298B2, “Natural killer cells” (Imperial College Innovations Limited, priority 2017, dated 2025).
